Data taken from US11053204B2, “Pyrimidinyloxy benzene derivatives as herbicides” (FMC Corporation, priority 2015, dated 2021).

Legend:
Assay type in all cases: in vivo
[1] = tested on: barnyardgrass (Echinochloa crus-galli); assay: Test A preemergence, visual injury rating
How it was run: (§1)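 Visual 0–100 rating (100 = complete control) taken about 10 d post-treatment relative to untreated checks. Preemergence: directed soil spray on sown loam/sand pots. Postemergence: seedlings 2–10 cm, 1–2 leaf. Non-phytotoxic solvent formulation with surfactant.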

kochia (Kochia scoparia) [2] = assay: Test A preemergence, visual injury rating
How it was run: as §1

[3] = tested on: giant foxtail (Setaria faberii); assay: Test A preemergence, visual injury rating
How it was run: as §1

[4] = tested on: ragweed (common ragweed, Ambrosia elatior); assay: Test A preemergence, visual injury rating
How it was run: as §1

[5] = tested on: pigweed (Amaranthus retroflexus); assay: Test A preemergence, visual injury rating
How it was run: as §1

[6] = tested on: Italian ryegrass (Lolium multiflorum); assay: Test A preemergence, visual injury rating
How it was run: as §1

[7] = tested on: barnyardgrass (Echinochloa crus-galli); assay: Test B flooded paddy test, plant response rating; settings: Echinochloa crus-galli, 312 h; 250 g ai/ha; Flood; scale of 0 to 100 where 0 is no effect and 100 is complete control; 13 to 15 days
How it was run: (§2)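 Under a constant 3 cm flood, test compounds went directly into the paddy water. Following 13 to 15 days of greenhouse growth, treated species and controls were compared by eye.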

[8] = tested on: sedge, umbrella (small-flower umbrella sedge, Cyperus difformis); assay: Test B flooded paddy test, plant response rating; settings: Cyperus difformis, 312 h; 250 g ai/ha; Flood; scale of 0 to 100 where 0 is no effect and 100 is complete control; 13 to 15 days
How it was run: as §2

[9] = tested on: ducksalad (Heteranthera limosa); assay: Test B flooded paddy test, plant response rating; settings: Heteranthera limosa, 312 h; 250 g ai/ha; Flood; scale of 0 to 100 where 0 is no effect and 100 is complete control; 13 to 15 days
How it was run: as §2

rice (Oryza sativa) = assay: Test B flooded paddy test, plant response rating; settings: Oryza sativa, 312 h; 250 g ai/ha; Flood; scale of 0 to 100 where 0 is no effect and 100 is complete control; 13 to 15 days
How it was run: as §2

[10] = tested on: barnyardgrass (Echinochloa crus-galli); assay: Test A postemergence, visual injury rating; settings: 0 is no effect, 100 is complete control
How it was run: as §1

kochia (Kochia scoparia) [11] = assay: Test A postemergence, visual injury rating; settings: 0 is no effect, 100 is complete control
How it was run: as §1

[12] = tested on: giant foxtail (Setaria faberii); assay: Test A postemergence, visual injury rating; settings: 0 is no effect, 100 is complete control
How it was run: as §1

[13] = tested on: galium (catchweed bedstraw, Galium aparine); assay: Test A postemergence, visual injury rating; settings: 0 is no effect, 100 is complete control
How it was run: as §1

[14] = tested on: ragweed (common ragweed, Ambrosia elatior); assay: Test A postemergence, visual injury rating; settings: 0 is no effect, 100 is complete control
How it was run: as §1

[15] = tested on: wheat (Triticum aestivum); assay: Test A postemergence, visual injury rating; settings: 0 is no effect, 100 is complete control
How it was run: as §1

[16] = tested on: pigweed (Amaranthus retroflexus); assay: Test A postemergence, visual injury rating; settings: 0 is no effect, 100 is complete control
How it was run: as §1

corn (Zea mays) = assay: Test A postemergence, visual injury rating; settings: 0 is no effect, 100 is complete control
How it was run: as §1

[17] = tested on: Italian ryegrass (Lolium multiflorum); assay: Test A postemergence, visual injury rating; settings: 0 is no effect, 100 is complete control
How it was run: as §1

[18] = tested on: blackgrass (Alopecurus myosuroides); assay: Test A postemergence, visual injury rating; settings: 0 is no effect, 100 is complete control
How it was run: as §1

[19] = 31 g ai/ha, 0 to 100 scale, 0 no effect, 100 complete control
[20] = 31 g ai/ha, 0 to 100 scale, approximately 10 days

In the case of `O=C(OCCC(F)(F)F)c1cc(C(F)(F)F)ccc1Oc1ncc(Cl)cn1` [Compound 53], the “Plant response rating, Barnyardgrass” value [1, 19] is reported as 0, the pest or weed control at 125 g/ha ([1]; Echinochloa crus-galli, pre-emergence, 240 h, 125 g ai/ha, 0 to 100 scale (0 no effect, 100 complete control), read-out: Barnyardgrass plant response rating) is reported as 0% and the “Plant response rating, Kochia” value (kochia (Kochia scoparia) [2]; [19]) is reported as 0. For the same molecule, the pest or weed control at 125 g/ha (kochia (Kochia scoparia) [2]; Bassia scoparia, pre-emergence, 240 h, 125 g ai/ha, 0 to 100 scale (0 no effect, 100 complete control), read-out: Kochia plant response rating) was 0%, the “Plant response rating, Foxtail, Giant” value [3, 19] was 0 and the pest or weed control at 125 g/ha ([3]; Setaria faberi, pre-emergence, 240 h, 125 g ai/ha, 0 to 100 scale (0 no effect, 100 complete control), read-out: Foxtail, Giant plant response rating) was 0%. For the same molecule, the “Plant response rating, Ragweed” value [4, 19] was 0, the pest or weed control at 125 g/ha ([4]; Ambrosia artemisiifolia, pre-emergence, 240 h, 125 g ai/ha, 0 to 100 scale (0 no effect, 100 complete control), read-out: Ragweed plant response rating) was 0% and the “Plant response rating, Pigweed” value [5, 19] was 0. The pest or weed control at 125 g/ha ([5]; Amaranthus retroflexus, pre-emergence, 240 h, 125 g ai/ha, 0 to 100 scale (0 no effect, 100 complete control), read-out: Pigweed plant response rating) was 0%, the “Plant response rating, Ryegrass, Italian” value [6, 19] was 0 and the pest or weed control at 125 g/ha ([6]; Lolium multiflorum, pre-emergence, 240 h, 125 g ai/ha, 0 to 100 scale (0 no effect, 100 complete control), read-out: Ryegrass, Italian plant response rating) was 0%. It also gave a pest or weed control at 250 g/ha [7] of 0%, a pest or weed control at 250 g/ha [8] of 0% and a pest or weed control at 250 g/ha [9] of 0%. For the same molecule, the plant injury at 250 g/ha (rice (Oryza sativa)) was 0%, the “Barnyardgrass plant response rating” value [10, 20] was 0 and the pest or weed control at 125 g/ha ([10]; Echinochloa crus-galli, post-emergence, 240 h, 125 g ai/ha, read-out: Barnyardgrass plant response rating (0 to 100 scale)) was 0%. For the same molecule, the “Kochia plant response rating” value (kochia (Kochia scoparia) [11]; [20]) was 0, the pest or weed control at 125 g/ha (kochia (Kochia scoparia) [11]; Bassia scoparia, post-emergence, 240 h, 125 g ai/ha, read-out: Kochia plant response rating (0 to 100 scale)) was 0% and the “Foxtail, Giant plant response rating” value [12, 20] was 0. The pest or weed control at 125 g/ha ([12]; Setaria faberi, post-emergence, 240 h, 125 g ai/ha, read-out: Foxtail, Giant plant response rating (0 to 100 scale)) was 0%, the “Galium plant response rating” value [13, 20] was 0 and the pest or weed control at 125 g/ha ([13]; Galium, post-emergence, 240 h, 125 g ai/ha, read-out: Galium plant response rating (0 to 100 scale)) was 0%. For the same molecule, the “Ragweed plant response rating” value [14, 20] was 0, the pest or weed control at 125 g/ha ([14]; Ambrosia artemisiifolia, post-emergence, 240 h, 125 g ai/ha, read-out: Ragweed plant response rating (0 to 100 scale)) was 0% and the “Wheat plant response rating” value [15, 20] was 0. The plant injury at 125 g/ha ([15]; Triticum aestivum, post-emergence, 240 h, 125 g ai/ha, read-out: Wheat plant response rating (0 to 100 scale)) was 0%, the “Pigweed plant response rating” value [16, 20] was 0 and the pest or weed control at 125 g/ha ([16]; Amaranthus retroflexus, post-emergence, 240 h, 125 g ai/ha, read-out: Pigweed plant response rating (0 to 100 scale)) was 0%. For the same molecule, the “Corn plant response rating” value (corn (Zea mays); [20]) was 0, the plant injury at 125 g/ha (corn (Zea mays); Zea mays, post-emergence, 240 h, 125 g ai/ha, read-out: Corn plant response rating (0 to 100 scale)) was 0% and the “Ryegrass, Italian plant response rating” value [17, 20] was 0. For the same molecule, the pest or weed control at 125 g/ha ([17]; Lolium multiflorum, post-emergence, 240 h, 125 g ai/ha, read-out: Ryegrass, Italian plant response rating (0 to 100 scale)) was 0%, the “Blackgrass plant response rating” value [18, 20] was 0 and the pest or weed control at 125 g/ha ([18]; Alopecurus myosuroides, post-emergence, 240 h, 125 g ai/ha, read-out: Blackgrass plant response rating (0 to 100 scale)) was 0%.
